Data published in patent publication US5455356A, “Fungicidal 1-aryl-1-[α-(triazolyl)alkyl]-1-silacycloalkanes and their preparation methods” (priority 1993, dated 1995).

Tests used:
Type in all cases: cell-based
Phytophthora capsisi = assay: In vitro mycelial/spore growth on potato-sucrose-agar, percent disease control (PC); settings: read-out: % controlled, PC
Summary of the method: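 Compounds at 100 ppm and 50 ppm (10% acetone in water) mixed into potato-sucrose-agar, with the fungus spotted at the centre and incubated for several days. Percent control derived from the radii of spore growth.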

Botryosphaeri = assay: In vitro mycelial/spore growth on potato-sucrose-agar, percent disease control (BD); settings: read-out: % controlled, BD
Summary of the method: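 Compounds at 100 ppm and 50 ppm (10% acetone in water) mixed into potato-sucrose-agar, with Botryosphaeria spotted centrally and incubated for several days. Percent disease control calculated from growth radii.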

GC = assay: In vitro mycelial/spore growth on potato-sucrose-agar, percent disease control (GC); settings: read-out: % controlled, GC; for inhibition of growth at 50 ppm: GC
Summary of the method: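 Compounds dissolved in acetone (10% of final volume) and water at 100 and 50 ppm, mixed into potato-sucrose-agar. Fungus spotted at plate centre and incubated several days in a growth room; percent disease control derived from the radii of growth.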

Pyricalaria oryzae = assay: In vitro mycelial/spore growth on potato-sucrose-agar, percent disease control (PO); settings: read-out: % controlled, PO
Summary of the method: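 Compounds at 100 ppm and 50 ppm (10% acetone in water) mixed into potato-sucrose-agar, with Pyricalaria oryzae spotted centrally. After several days' incubation in a growth room, percent disease control derived from spore growth radii.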

Rhizoctonia solani = assay: In vitro mycelial/spore growth on potato-sucrose-agar, percent disease control (RS, first column); settings: read-out: % controlled, RS
Summary of the method: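 Compounds applied at 100 ppm and 50 ppm (10% acetone in water), mixed into potato-sucrose-agar with fungus spotted centrally. Incubated several days in growth room. Percent disease control derived from radii of spore growth.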

Fusarium moniliforme = assay: In vitro mycelial/spore growth on potato-sucrose-agar, percent disease control (FM); settings: Fusarium verticillioides, Fusarium moniliforme, read-out: % controlled, FM
Summary of the method: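 Compounds at 100 and 50 ppm, in water containing 10% acetone, were mixed into potato-sucrose agar, and the fungus was spotted centrally. Plates were incubated several days in a growth room. Percent control was derived from growth radii.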

Rhizopus sp. = assay: In vitro mycelial/spore growth on potato-sucrose-agar, percent disease control (RS, second column); settings: read-out: % controlled, RS; for inhibition of growth at 50 ppm: Rhizopus sp.; for inhibition of growth at 200 ppm: Rhizopus
Summary of the method: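 Compound dissolved in acetone (10% of final volume) and water at 100 ppm and 50 ppm, mixed into potato-sucrose-agar. Rhizopus sp. spotted centrally and grown several days in a growth room; percent disease control derived from spore growth radii.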

Botritis cinerea = assay: In vitro mycelial/spore growth on potato-sucrose-agar, percent disease control (BC); settings: read-out: % controlled, BC
Summary of the method: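 Compounds dissolved in acetone (10% of final volume) then water to 100 and 50 ppm, mixed into potato-sucrose-agar, and B. cinerea spotted centrally. After several days in a growth room, percent disease control calculated from spore growth radii.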

| SMILES | inhibition of growth at 50 ppm (Phytophthora capsisi) [%] | inhibition of growth at 200 ppm (Phytophthora capsisi) [%] | inhibition of growth at 50 ppm (Botryosphaeri) [%] | inhibition of growth at 200 ppm (Botryosphaeri) [%] | inhibition of growth at 50 ppm (GC) [%] | inhibition of growth at 200 ppm (GC) [%] | inhibition of growth at 50 ppm (Pyricalaria oryzae) [%] | inhibition of growth at 200 ppm (Pyricalaria oryzae) [%] | inhibition of growth at 50 ppm (Rhizoctonia solani) [%] | inhibition of growth at 200 ppm (Rhizoctonia solani) [%] | inhibition of growth at 50 ppm (Fusarium moniliforme) [%] | inhibition of growth at 200 ppm (Fusarium moniliforme) [%] | inhibition of growth at 50 ppm (Rhizopus sp.) [%] | inhibition of growth at 200 ppm (Rhizopus sp.) [%] | inhibition of growth at 50 ppm (Botritis cinerea) [%] | inhibition of growth at 200 ppm (Botritis cinerea) [%] |
| --- | --- | --- | --- | --- | --- | --- | --- | --- | --- | --- | --- | --- | --- | --- | --- | --- |
| COc1ccc([Si]2(Cn3cncn3)CCCCC2)cc1 [1-(4-methoxyphenyl)-1-(1H-1,2,4-triazole-1-yl)methyl-1-silacyclohexane] | 49 | 93 | 85 | 100 | 100 | 100 | 100 | 100 | 96 | 100 | 81 | 92 | 65 | 79 | 69 | 89 |
| COc1ccc([Si]2(Cn3cncn3)CCCC2)cc1 [1-(4-methoxyphenyl)-1-(1H-1,2,4-triazole-1-yl)methyl-1-silacyclopentane] | 41 | 100 | 75 | 79 | 100 | 100 | 100 | 100 | 74 | 100 | 70 | 80 | 64 | 75 | 72 | 77 |
| COc1ccc([Si]2(C(C)n3cncn3)CCCC2)cc1 (stereo not drawn) [1-(4-methoxyphenyl)-1-[α-(1H-1,2,4-triazole-1-yl)ethyl]-1-silacyclopentane] | 50 | 90 | 71 | 96 | 100 | 100 | 100 | 100 | 100 | 100 | 94 | 99 | 59 | 80 | 81 | 95 |
| FC(F)(F)c1ccc([Si]2(Cn3cncn3)CCCCC2)cc1 [1-(4-trifluoromethyl)-1-(1H-1,2,4-triazole-1-yl)methyl-1-silacyclohexane] | 75 | 99 | 100 | 100 | 100 | 100 | 100 | 100 | 54 | 80 | 82 | 98 | 63 | 76 | 93 | 100 |
| FC(F)(F)c1ccc([Si]2(Cn3cncn3)CCCC2)cc1 [1-(4-trifluoromethyl)-1-(1H-1,2,4-triazole-1-yl)methyl-1-silacyclopentane] | 70 | 79 | 96 | 100 | 100 | 100 | 100 | 100 | 95 | 99 | 79 | 100 | 69 | 72 | 96 | 100 |
| CC(n1cncn1)[Si]1(c2ccc(C(F)(F)F)cc2)CCCCC1 (stereo not drawn) [1-(4-trifluoromethyl)-1-[α-(1H-1,2,4-triazole-1-yl)ethyl]-1-silacyclohexane] | 39 | 78 | 100 | 100 | 100 | 100 | 100 | 100 | 99 | 100 | 58 | 99 | 47 | 56 | 66 | 99 |
| CC(n1cncn1)[Si]1(c2ccc(C(F)(F)F)cc2)CCCC1 (stereo not drawn) [1-(4-trifluoromethyl)-1-[α-(1H-1,2,4-triazole-1-yl)ethyl]-1-silacyclopentane] | 86 | 98 | 90 | 100 | 100 | 100 | 100 | 100 | 92 | 100 | 73 | 99 | 56 | 75 | 94 | 100 |
